Results published in ChEMBL document CHEMBL5104171 (Bioorg Med Chem Lett, 2022).
≈ marks a conversion by molar mass, not a printed value. Each block holds one compound with its values, some of them ahead of it.

Tests used:
[1] = Inhibition of RANKL-induced human osteoclast precursor cells differentiation in presence of human M-CSF and measured by tartrate-resistant acid phosphatase activity assay; format: functional, cell-based
[2] = target: Hepatocyte growth factor receptor (Homo sapiens, UniProt P08581); experiment: Inhibition of N-terminal His-Glu-TEV-tagged MET (unknown origin) (1050 to 1360 residues) measured by spectrophotometric analysis
animal or person [3] = details: Mus musculus, DBA/1, 144 h, read-out: INH
[4] = Plasma protein binding in mouse; format: ADME, cell-free; details: read-out: PPB (converted)
[5] = Plasma concentration in DBA/1 mouse at 15 mg/kg, po administered once daily for 6 days and measured at 12 hrs; format: ADME, organism-based; details: time 6 day
[6] = Aqueous solubility of compound at pH 7.4; format: physicochemical
animal or person [7] = details: Mus musculus, DBA/1, 144 h, read-out: INH; remark: listed apart in the source
[8] = Plasma concentration in DBA/1 mouse at 15 mg/kg, po administered once daily for 6 days and measured at 24 hrs; format: ADME, organism-based; details: time 6 day
[9] = Permeability across apical to basolateral side in human Caco-2 cells; format: ADME, cell-based; details: read-out: permeability
animal or person [10] = details: Mus musculus, DBA/1, 144 h, read-out: INH; remark: listed apart in the source
[11] = Plasma concentration in DBA/1 mouse at 15 mg/kg, po administered once daily for 6 days and measured at 8 hrs; format: ADME, organism-based; details: time 6 day
[12] = Plasma concentration in DBA/1 mouse at 15 mg/kg, po administered once daily for 6 days and measured at 6 hrs; format: ADME, organism-based; details: time 6 day
animal or person [13] = details: Mus musculus, DBA/1, 144 h, read-out: INH; remark: listed apart in the source
animal or person [14] = details: Mus musculus, DBA/1, 144 h, read-out: INH; remark: listed apart in the source
[15] = Plasma concentration in DBA/1 mouse at 15 mg/kg, po administered once daily for 6 days and measured at 4 hrs; format: ADME, organism-based; details: time 6 day
[16] = Plasma concentration in DBA/1 mouse at 15 mg/kg, po administered once daily for 6 days and measured at 18 hrs; format: ADME, organism-based; details: time 6 day
[17] = Plasma concentration in DBA/1 mouse at 15 mg/kg, po administered once daily for 6 days and measured at 2 hrs; format: ADME, organism-based; details: time 6 day
[18] = Metabolic stability in mouse liver microsomes assessed as compound remaining at 60 mins; format: ADME, Microsome; details: read-out: Stability
[19] = Metabolic stability in human liver microsomes assessed as compound remaining at 60 mins; format: ADME, Microsome; details: read-out: Stability
[20] = Plasma protein binding in human; format: ADME, cell-free; details: read-out: PPB (converted)
animal or person [21] = details: Mus musculus, DBA/1, 144 h, read-out: INH; remark: listed apart in the source
animal or person [22] = details: Mus musculus, DBA/1, 144 h, read-out: INH; remark: listed apart in the source

Sequence of Hepatocyte growth factor receptor (P08581 whole entry, the tested form may be a part): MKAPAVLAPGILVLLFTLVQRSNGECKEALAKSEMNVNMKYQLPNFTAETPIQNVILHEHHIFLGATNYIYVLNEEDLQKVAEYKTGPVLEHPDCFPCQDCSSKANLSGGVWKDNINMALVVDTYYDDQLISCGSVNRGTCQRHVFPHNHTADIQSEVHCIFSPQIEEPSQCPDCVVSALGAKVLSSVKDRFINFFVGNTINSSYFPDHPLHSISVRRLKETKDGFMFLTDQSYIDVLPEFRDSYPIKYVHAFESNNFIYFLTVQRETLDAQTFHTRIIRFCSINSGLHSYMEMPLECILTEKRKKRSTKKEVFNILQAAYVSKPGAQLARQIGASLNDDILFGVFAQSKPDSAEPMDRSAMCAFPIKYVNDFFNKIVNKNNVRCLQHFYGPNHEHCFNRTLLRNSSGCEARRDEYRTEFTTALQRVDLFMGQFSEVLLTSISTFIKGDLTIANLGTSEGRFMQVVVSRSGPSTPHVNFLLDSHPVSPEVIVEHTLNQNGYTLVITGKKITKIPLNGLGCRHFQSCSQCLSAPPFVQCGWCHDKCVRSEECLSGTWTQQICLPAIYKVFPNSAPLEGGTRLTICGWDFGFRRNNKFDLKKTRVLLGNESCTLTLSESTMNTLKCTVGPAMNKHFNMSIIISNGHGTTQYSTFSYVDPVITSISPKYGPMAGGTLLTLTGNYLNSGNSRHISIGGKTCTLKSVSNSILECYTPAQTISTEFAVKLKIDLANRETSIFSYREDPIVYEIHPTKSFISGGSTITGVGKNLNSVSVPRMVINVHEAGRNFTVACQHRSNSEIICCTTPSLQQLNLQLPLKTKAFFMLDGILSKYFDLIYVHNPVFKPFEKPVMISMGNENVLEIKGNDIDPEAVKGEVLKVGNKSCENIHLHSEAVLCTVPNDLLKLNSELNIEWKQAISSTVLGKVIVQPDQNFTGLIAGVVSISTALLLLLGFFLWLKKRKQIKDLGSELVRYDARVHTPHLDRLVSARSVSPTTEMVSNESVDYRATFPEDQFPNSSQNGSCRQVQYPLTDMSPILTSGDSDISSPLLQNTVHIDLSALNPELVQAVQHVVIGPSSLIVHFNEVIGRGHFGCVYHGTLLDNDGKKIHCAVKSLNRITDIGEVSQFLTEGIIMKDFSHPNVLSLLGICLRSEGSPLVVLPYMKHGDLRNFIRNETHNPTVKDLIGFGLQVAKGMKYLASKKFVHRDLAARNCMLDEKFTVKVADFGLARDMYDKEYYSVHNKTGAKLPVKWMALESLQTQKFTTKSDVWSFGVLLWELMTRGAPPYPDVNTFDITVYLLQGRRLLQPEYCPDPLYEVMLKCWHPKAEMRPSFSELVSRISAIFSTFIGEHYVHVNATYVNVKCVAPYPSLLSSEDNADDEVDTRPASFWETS

IC50 [1]: 1.7 nM
Compound: CN(C)CC(=O)N1CCC(c2ccc(NC(=O)c3nc(C#N)c[nH]3)c(C3=CCCCC3)c2)CC1

IC50 [2]: > 3300 nM
Compound: FC(F)(F)c1ccc(CNc2ccc(Cc3c[nH]c4ncc(Cl)cc34)cn2)cn1 [PEXIDARTINIB]

fraction unbound [4]: 0.041
concentration at 144 h [5]: 163 ng/mL
solubility [6]: 95.6 µM (≈ 39 µg/mL)
concentration at 144 h [8]: 86 ng/mL
Papp A→B [9]: 13.9 ×10⁻⁶ cm/s
concentration at 144 h [11]: 1350 ng/mL
concentration at 144 h [12]: 1430 ng/mL
concentration at 144 h [15]: 1860 ng/mL
concentration at 144 h [16]: 125 ng/mL
concentration at 144 h [17]: 2250 ng/mL
remaining at 1 h [18]: 91%
remaining at 1 h [19]: 100%
fraction unbound [20]: 0.023
Compound: Cc1nc(NC(=O)NC(=O)C(C)(C)C)ccc1Oc1ccnc(-c2cnn(C)c2)c1
inhibition in vivo at 15 mg/kg (animal or person [3]): 88%
inhibition in vivo at 15 mg/kg (animal or person [7]): 14%
inhibition in vivo at 15 mg/kg (animal or person [10]): 94%
inhibition in vivo at 15 mg/kg (animal or person [13]): 75%
inhibition in vivo at 15 mg/kg (animal or person [14]): 18%
inhibition in vivo at 15 mg/kg (animal or person [21]): 89%
inhibition in vivo at 15 mg/kg (animal or person [22]): -4%
